Measurements: patent US20100041642A1, “UREA INHIBITORS OF MAP KINASES” (LOCUS PHARMACEUTICALS, INC., priority 2008, published 2010)

The molecules below were run against p38 (Homo sapiens, UniProt Q16539) (assay: Protein Kinase Assay (33P incorporation from γ-[33P]ATP into GST-ATF-2)). Conditions: 2 nM p38, preincubated 20 min at 30° C.; 10 uM cold ATP, 2 uM GST-ATF2, 70 min; read-out: ACT. (Activity), IC50 category in Protein Kinase Assay.
Assay type: biochemical
Method in brief: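 Compounds preincubated 20 min at 30 °C with 2 nM p38; reaction started with 2 uM GST-ATF-2 (aa 19-96) and 10 uM ATP plus γ-[33P]ATP, pH 7.5, 70 min at 30 °C, 2% DMSO. Phosphoric acid stop; 33P-labelled substrate captured on phosphocellulose and counted by scintillation.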

Chain of p38 (Q16539 whole entry): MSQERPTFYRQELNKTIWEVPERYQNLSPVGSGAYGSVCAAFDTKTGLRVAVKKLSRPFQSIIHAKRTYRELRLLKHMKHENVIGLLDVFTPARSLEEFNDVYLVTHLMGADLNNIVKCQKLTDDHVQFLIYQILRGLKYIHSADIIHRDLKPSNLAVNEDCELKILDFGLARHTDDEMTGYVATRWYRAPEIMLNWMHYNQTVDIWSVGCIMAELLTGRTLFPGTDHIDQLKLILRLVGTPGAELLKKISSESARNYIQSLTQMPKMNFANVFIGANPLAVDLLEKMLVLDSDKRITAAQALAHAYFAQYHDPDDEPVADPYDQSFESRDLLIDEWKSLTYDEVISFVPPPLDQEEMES

SMILES	IC50 [nM]
Cc1ccc(NC(=O)Nc2sc(C(C)(C)C)cc2C(=O)N2CCNC(=O)C2(C)C)cc1-c1ccccn1 [1-(5-tert-butyl-3-(2,2-dimethyl-3-oxopiperazine-1-carbonyl)thiophen-2-yl)-3-(4-methyl-3-(pyridin-2-yl)phenyl)urea]	< 100
Cc1ccc(NC(=O)Nc2sc(C(C)(C)C)cc2C(=O)N2CCNC(=O)C2(C)C)cc1C#Cc1ccccn1 [1-(5-tert-butyl-3-(2,2-dimethyl-3-oxopiperazine-1-carbonyl)thiophen-2-yl)-3-(4-methyl-3-(pyridin-2-ylethynyl)phenyl)urea]	< 100
Cc1ccc(NC(=O)Nc2sc(C(C)(C)C)cc2C(=O)N2CCNC(=O)C2(C)C)cc1-c1cccnc1 [1-(5-tert-butyl-3-(2,2-dimethyl-3-oxopiperazine-1-carbonyl)thiophen-2-yl)-3-(4-methyl-3-(pyridin-3-yl)phenyl)urea]	< 100
Cc1ccc(NC(=O)Nc2sc(C(C)(C)C)cc2C(=O)N2CCNC(=O)C2(C)C)cc1-c1ccncc1 [1-(5-tert-butyl-3-(2,2-dimethyl-3-oxopiperazine-1-carbonyl)thiophen-2-yl)-3-(4-methyl-3-(pyridin-4-yl)phenyl)urea]	< 100
Cc1ccc(NC(=O)Nc2sc(C(C)(C)C)cc2C(=O)N2CCNC(=O)C2(C)C)cc1-c1ncccn1 [1-(5-tert-butyl-3-(2,2-dimethyl-3-oxopiperazine-1-carbonyl)thiophen-2-yl)-3-(4-methyl-3-(pyrimidin-2-yl)phenyl)urea]	< 100
COc1ccc(-c2ccc(C)c(NC(=O)Nc3sc(C(C)(C)C)cc3C(=O)N3CCNC(=O)C3(C)C)c2)cn1 [1-(5-tert-butyl-3-(2,2-dimethyl-3-oxopiperazine-1-carbonyl)thiophen-2-yl)-3-(5-(6-methoxypyridin-3-yl)-2-methylphenyl)urea]	< 100
Cc1nnc(CN2CCN(C(=O)c3cc(C(C)(C)C)sc3NC(=O)Nc3ccc(C)c(-c4ccncc4)c3)C(C)(C)C2=O)o1 [1-(5-tert-butyl-3-(3,3-dimethyl-1-((5-methyl-1,3,4-oxadiazol-2-yl)methyl)-2-oxopiperazine-4-carbonyl)thiophen-2-yl)-3-(4-methyl-3-(pyridin-4-yl)phenyl)urea]	< 100
Cc1ccc(NC(=O)Nc2sc(C(C)(C)C)cc2C(=O)N2CCN(C(=O)CN(C)C)CC2)cc1-c1cccnc1 [1-(5-tert-butyl-3-(4-(2-(dimethylamino)ethanoyl)piperazine-1-carbonyl)thiophen-2-yl)-3-(4-methyl-3-(pyridin-3-yl)phenyl)urea]	< 1000
CCc1ccc(-c2cc(NC(=O)Nc3sc(C(C)(C)C)cc3C(=O)N3CCN(CCN(C)C)C(=O)C3(C)C)ccc2C)cn1 [1-(5-tert-butyl-3-(4-(2-(dimethylamino)ethyl)-2,2-dimethyl-3-oxopiperazine-1-carbonyl)thiophen-2-yl)-3-(3-(6-ethylpyridin-3-yl)-4-methylphenyl)urea]	< 1000
Cc1ccc(NC(=O)Nc2sc(C(C)(C)C)cc2C(=O)N2CCN(CCN(C)C)C(=O)C2(C)C)cc1-c1cccnc1 [1-(5-tert-butyl-3-(4-(2-(dimethylamino)ethyl)-2,2-dimethyl-3-oxopiperazine-1-carbonyl)thiophen-2-yl)-3-(4-methyl-3-(pyridin-3-yl)phenyl)urea]	< 100
COc1ccc(-c2cc(NC(=O)Nc3sc(C(C)(C)C)cc3C(=O)N3CCN(CCO)C(=O)C3(C)C)ccc2C)cn1 [1-(5-tert-butyl-3-(4-(2-hydroxyethyl)-2,2-dimethyl-3-oxopiperazine-1-carbonyl)thiophen-2-yl)-3-(3-(6-methoxypyridin-3-yl)-4-methylphenyl)urea]	< 100
CC(=O)N1CCN(C(=O)c2cc(C(C)(C)C)sc2NC(=O)Nc2ccc(C)c(-c3cccnc3)c2)CC1 [1-(5-tert-butyl-3-(4-ethanoylpiperazine-1-carbonyl)thiophen-2-yl)-3-(4-methyl-3-(pyridin-3-yl)phenyl)urea]	< 100
COc1ccc(-c2cc(NC(=O)Nc3sc(C(C)(C)C)cc3C(=O)N3CCC(=O)N(C)CC3)ccc2C)cn1 [1-(5-tert-butyl-3-(4-methyl-5-oxo-1,4-diazepane-1-carbonyl)thiophen-2-yl)-3-(3-(6-methoxypyridin-3-yl)-4-methylphenyl)urea]	< 100
Cc1ccc(NC(=O)Nc2sc(C(C)(C)C)cc2C(=O)N2CCC(=O)N(C)CC2)cc1-c1ccc(N2CCOCC2)cn1 [1-(5-tert-butyl-3-(4-methyl-5-oxo-1,4-diazepane-1-carbonyl)thiophen-2-yl)-3-(4-methyl-3-(5-morpholinopyridin-2-yl)phenyl)urea]	< 100
Cc1ccc(NC(=O)Nc2sc(C(C)(C)C)cc2C(=O)N2CCNC(=O)CC2)cc1-c1cnc(N2CCOCC2)nc1 [1-(5-tert-butyl-3-(5-oxo-1,4-diazepane-1-carbonyl)thiophen-2-yl)-3-(4-methyl-3-(2-morpholinopyrimidin-5-yl)phenyl)urea]	< 100
Cc1ccc(NC(=O)Nc2sc(C(C)(C)C)cc2C(=O)N2CCNC(=O)CC2)cc1-c1cccnc1 [1-(5-tert-butyl-3-(5-oxo-1,4-diazepane-1-carbonyl)thiophen-2-yl)-3-(4-methyl-3-(pyridin-3-yl)phenyl)urea]	< 100
Cc1ccc(NC(=O)Nc2sc(C(C)(C)C)cc2C(=O)N2CCNC(=O)C2(C)C)cc1-c1cccc[n+]1[O-] [2-(5-(3-(5-tert-butyl-3-(2,2-dimethyl-3-oxopiperazine-1-carbonyl)thiophen-2-yl)ureido)-2-methylphenyl)pyridine 1-oxide]	< 100
Cc1ccc(NC(=O)Nc2sc(C(C)(C)C)cc2C(=O)N2CCNC(=O)C2(C)C)cc1-c1cc[n+]([O-])cc1 [4-(5-(3-(5-tert-butyl-3-(2,2-dimethyl-3-oxopiperazine-1-carbonyl)thiophen-2-yl)ureido)-2-methylphenyl)pyridine 1-oxide]	< 100
Cc1ccc(NC(=O)Nc2sc(C(C)(C)C)cc2C(=O)N2CCN(C)C(=O)C2(C)C)cc1-c1ccc(C[N+]2([O-])CCOCC2)[n+]([O-])c1 [4-((5-(5-(3-(5-tert-butyl-3-(2,2,4-trimethyl-3-oxopiperazine-1-carbonyl)thiophen-2-yl)ureido)-2-methylphenyl)-1-oxidopyridin-2-yl)methyl)morpholine 4-oxide]	< 1000
Cc1ccc(NC(=O)Nc2sc(C(C)(C)C)cc2C(=O)N2CCN(C)C(=O)C2(C)C)cc1-c1ccc(C[N+]2([O-])CCOCC2)nc1 [4-((5-(5-(3-(5-tert-butyl-3-(2,2,4-trimethyl-3-oxopiperazine-1-carbonyl)thiophen-2-yl)ureido)-2-methylphenyl)pyridin-2-yl)methyl)morpholine 4-oxide]	< 100
CCNC(=O)c1ccc(-c2cc(NC(=O)Nc3cn(C(C)(C)C)nc3C(=O)N3CCN(C)C(=O)C3(C)C)ccc2C)cn1 [5-(5-(3-(1-tert-butyl-3-(2,2,4-trimethyl-3-oxopiperazine-1-carbonyl)-1H-pyrazol-4-yl)ureido)-2-methylphenyl)-N-ethylpyridine-2-carboxamide]	< 100
CCNC(=O)c1ccc(-c2cc(NC(=O)Nc3cn(C(C)(C)C)nc3C(=O)N3CCNC(=O)C3(C)C)ccc2C)cn1 [5-(5-(3-(1-tert-butyl-3-(2,2-dimethyl-3-oxopiperazine-1-carbonyl)-1H-pyrazol-4-yl)ureido)-2-methylphenyl)-N-ethylpyridine-2-carboxamide]	< 100
